Results on 40 molecules are retold here after US20240254119A1 (THIRD HARMONIC BIO, INC., priority 2022, published 2024).

Each structure is given as a SMILES string. pIC50: −log10 of the molar value. A value given as a limit tells only on which side of the number the result lay.

Data set [1] addresses T1, wtKIT (Homo sapiens, UniProt P10721).
T1 construct: 1888289AM in the reaction mixtures
Put plainly: HTRF biochemical assay, wtKIT (phosphorylation of a peptide substrate). As to conditions: Table 4. In a few lines: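 HTRF read-out of FAM-peptide (1 µM) phosphorylation after anti-phosphotyrosine antibody addition and EDTA quench. Reaction: 5.0 nM wtKIT, 400 µM ATP, 10 mM Mn2+, HEPES pH 7.5, 1% DMSO, 3 h, 25 °C; optional enzyme-compound preincubation; enzyme level set for 10-20% conversion.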

In data set [2] the target is T2, MDR1 (MDR1-MDCKII cells) (Homo sapiens, UniProt P08183).
T2 construct: host or cells: MDCKII (canine kidney) cells
T2 sequence (P08183 whole entry): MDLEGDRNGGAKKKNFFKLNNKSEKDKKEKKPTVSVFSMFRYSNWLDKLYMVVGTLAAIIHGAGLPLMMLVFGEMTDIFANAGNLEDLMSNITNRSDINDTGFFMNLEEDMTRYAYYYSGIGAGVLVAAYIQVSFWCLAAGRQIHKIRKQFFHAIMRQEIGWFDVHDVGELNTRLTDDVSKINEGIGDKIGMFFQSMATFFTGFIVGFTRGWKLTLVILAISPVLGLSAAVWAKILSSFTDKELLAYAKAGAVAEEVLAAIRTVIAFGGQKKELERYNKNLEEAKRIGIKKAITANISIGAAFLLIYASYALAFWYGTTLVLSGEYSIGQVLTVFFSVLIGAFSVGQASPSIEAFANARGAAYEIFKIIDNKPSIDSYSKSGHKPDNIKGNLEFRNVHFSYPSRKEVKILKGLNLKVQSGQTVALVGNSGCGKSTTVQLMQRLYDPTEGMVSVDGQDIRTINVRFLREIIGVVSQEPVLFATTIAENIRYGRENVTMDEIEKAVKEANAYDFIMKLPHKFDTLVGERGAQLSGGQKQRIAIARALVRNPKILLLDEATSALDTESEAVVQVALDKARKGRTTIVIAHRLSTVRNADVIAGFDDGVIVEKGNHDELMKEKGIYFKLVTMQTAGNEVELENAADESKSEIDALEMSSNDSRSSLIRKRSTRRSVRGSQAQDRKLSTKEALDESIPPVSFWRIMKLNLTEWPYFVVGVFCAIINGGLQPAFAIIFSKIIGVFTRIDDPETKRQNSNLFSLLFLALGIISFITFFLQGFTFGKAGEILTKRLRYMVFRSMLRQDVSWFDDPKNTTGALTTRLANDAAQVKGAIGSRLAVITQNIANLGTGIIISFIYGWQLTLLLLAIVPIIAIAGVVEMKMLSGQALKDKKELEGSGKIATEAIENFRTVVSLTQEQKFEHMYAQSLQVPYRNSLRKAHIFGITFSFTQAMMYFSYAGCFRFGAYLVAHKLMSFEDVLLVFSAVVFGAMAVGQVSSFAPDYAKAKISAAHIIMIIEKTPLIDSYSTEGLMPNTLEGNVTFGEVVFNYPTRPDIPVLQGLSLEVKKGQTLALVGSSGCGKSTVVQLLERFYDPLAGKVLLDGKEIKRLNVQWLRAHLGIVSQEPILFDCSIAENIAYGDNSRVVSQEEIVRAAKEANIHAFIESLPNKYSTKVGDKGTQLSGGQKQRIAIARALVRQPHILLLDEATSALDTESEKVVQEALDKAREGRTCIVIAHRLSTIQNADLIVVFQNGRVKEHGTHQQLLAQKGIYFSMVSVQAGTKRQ
The experiment in a line: Permeability in MDR1-MDCKII cells. The format is in vitro ADME. As to conditions: for MDCKII-MDR1: Papp A-B: MDCKII-MDR1, apical to basolateral. The protocol: Exemplary compounds were tested for cell permeability in Caco-2, MDCKII-MDR1 and MDCKII-BCRP cell lines with efflux transporter engagement inferred from the efflux ratios determined. Procedures and results are described below. […] This feature of certain compounds is in part due to efflux transporter engagement. See, for instance, exemplary such compounds included in data tables below.
MDR1-MDCKII cells (obtained from Piet Borst at the Netherlands Cancer Institute) were seeded onto […] membranes (PET) in 96-well insert systems at 2.5×10^5 cells/mL until to 4-7 days for confluent cell monolayer formation.
Test compounds were diluted with the transport buffer (HBSS with 10 mM Hepes, pH7.4) from DMSO stock solution to a concentration of 2.00 μM (DMSO<1%) and applied to the apical or basolateral side of the cell monolayer. Permeation of the test compounds from A to B direction or B to A direction was determined in duplicate. Digoxin was tested at 10.0 μM from A to B direction or B to A direction as well, while nadolol and metoprolol were tested at […] in A to B direction in duplicate. The plate was incubated for 2.5 hours in CO2 incubator at 37±1° C., with 5% CO2 at saturated humidity without shaking. In addition, the efflux ratio of each compound was also determined. Test and reference compounds were quantified by LC-MS/MS analysis based on the peak area ratio of analyte/IS.
After transport assay, Lucifer yellow rejection assay are applied to determine the cell monolayer integrity. Buffers are removed from both apical and basolateral chambers, followed by the addition of 75 μL of 100 μM lucifer yellow in transport buffer and 250 μL transport buffer in apical and basolateral chambers, respectively. The plate is incubated for 30 minutes at 37° C. with 5% CO2 and saturated humidity without shaking. After 30 minutes incubation, 20 μL of lucifer yellow samples are taken from the apical sides, followed by the addition of 60 μL of Transport Buffer. And then 80 μL of lucifer yellow samples are taken from the basolateral sides. The relative fluorescence unit (RFU) of lucifer yellow is measured at 425/528 nm (excitation/emission) with an Envision plate reader.
The apparent permeability coefficient Papp (cm/s) was calculated using the equation: […]
Where dCr/dt is the cumulative concentration of compound in the receiver chamber as a function of time (μM/s); Vr is the solution volume in the receiver chamber (0.075 mL on the apical side, 0.25 mL on the basolateral side); A is the surface area for the transport, i.e. 0.0804 cm^2 for the area of the monolayer; C0 is the initial concentration in the donor chamber (μM). The efflux ratio was calculated using the equation: […]
Where Vd is the volume in the donor chambers (0.075 mL on the apical side, 0.25 mL on the basolateral side); Cd and Cr are the final concentrations of transport compound in donor and receiver chambers, respectively.

T1 sequence (P10721 26-976): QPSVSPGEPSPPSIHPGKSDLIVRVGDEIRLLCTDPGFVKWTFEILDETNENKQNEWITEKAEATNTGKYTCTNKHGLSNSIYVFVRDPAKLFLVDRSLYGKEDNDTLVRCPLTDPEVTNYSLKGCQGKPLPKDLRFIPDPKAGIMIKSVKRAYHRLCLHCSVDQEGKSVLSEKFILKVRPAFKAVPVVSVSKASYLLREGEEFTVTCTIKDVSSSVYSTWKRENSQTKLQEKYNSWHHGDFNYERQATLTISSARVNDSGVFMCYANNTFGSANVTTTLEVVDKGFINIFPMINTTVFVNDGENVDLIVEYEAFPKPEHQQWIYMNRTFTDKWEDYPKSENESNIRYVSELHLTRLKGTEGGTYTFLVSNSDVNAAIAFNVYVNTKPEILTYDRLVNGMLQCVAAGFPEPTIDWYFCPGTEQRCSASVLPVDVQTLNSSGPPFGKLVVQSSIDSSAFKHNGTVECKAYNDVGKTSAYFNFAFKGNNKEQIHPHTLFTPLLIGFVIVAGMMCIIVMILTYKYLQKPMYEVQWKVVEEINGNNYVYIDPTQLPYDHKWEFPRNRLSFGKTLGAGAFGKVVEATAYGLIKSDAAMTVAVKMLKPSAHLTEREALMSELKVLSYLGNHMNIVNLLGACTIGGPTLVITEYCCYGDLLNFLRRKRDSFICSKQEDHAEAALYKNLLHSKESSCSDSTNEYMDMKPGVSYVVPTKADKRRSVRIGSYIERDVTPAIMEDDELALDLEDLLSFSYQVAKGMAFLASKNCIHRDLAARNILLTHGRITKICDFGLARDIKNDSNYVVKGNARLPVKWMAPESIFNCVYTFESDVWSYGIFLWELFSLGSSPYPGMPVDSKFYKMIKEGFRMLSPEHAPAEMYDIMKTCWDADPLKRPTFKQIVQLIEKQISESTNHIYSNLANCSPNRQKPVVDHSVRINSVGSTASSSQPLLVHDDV

As to `Cc1ccc(-c2noc(C(C)NS(C)(=O)=O)n2)cc1NC(=O)c1cnc2ccccn12` (single isomer, unassigned) [Compound I-238], the pIC50 in data set [1] was 6.30 to 7.30.

With `Cc1ccc(-c2noc([C@H](C)O)n2)cc1NC(=O)c1cnc2ccccn12` [Compound I-271], in data set [2], the “MDCKII-MDR1: Efflux Ratio” value is 1.36 and the “MDCKII-MDR1: Papp A-B” value is recorded as 18.5 10^−6 cm/s.

Regarding `CCCNc1ccn2c(C(=O)Nc3cc(-c4noc([C@H]5C[C@@H]5F)n4)ccc3C)cnc2c1` [Compound I-304], in data set [2], the “MDCKII-MDR1: Efflux Ratio” value was found to be 1.08 and the “MDCKII-MDR1: Papp A-B” value is given as 3.65 10^−6 cm/s.

Take `Cc1ccc(-c2noc(C3CCN3)n2)cc1NC(=O)c1cnc2ccccn12` (racemic) [Compound I-394]: in data set [1], the pIC50 is 6.30 to 7.30. In data set [2], the “MDCKII-MDR1: Efflux Ratio” value is listed as 3.08 and the “MDCKII-MDR1: Papp A-B” value is recorded as 6.21 10^−6 cm/s.

`COc1ccn2c(C(=O)Nc3cc(-c4noc(C[C@H](C)O)n4)ccc3C)cnc2c1` [Compound I-94]: the pIC50 in data set [1] was at least 7.30.

On to `Cc1ccc(-c2noc(C(C)O)n2)cc1NC(=O)c1cnc2ccccn12` (racemic) [Compound I-364], for which, in data set [2], the “MDCKII-MDR1: Efflux Ratio” value is 2.02 and the “MDCKII-MDR1: Papp A-B” value is 16 10^−6 cm/s.

In the case of `Cc1ccc(-c2noc(C3CN(C(=O)CO)C3)n2)cc1NC(=O)c1cnc2ccccn12` [Compound I-287], in data set [2], the “MDCKII-MDR1: Efflux Ratio” value came out at 27.9 and the “MDCKII-MDR1: Papp A-B” value is recorded as 0.83 10^−6 cm/s.

For the molecule `Cc1ccc(-c2noc(C3CC(F)C3)n2)cc1NC(=O)c1cnc2ccccn12` (stereo not drawn) [Compound I-381], in data set [2], the “MDCKII-MDR1: Efflux Ratio” value worked out at 0.55 and the “MDCKII-MDR1: Papp A-B” value is 5.95 10^−6 cm/s.

Regarding `Cc1ccc(-c2cnc(N3CC(F)(F)C3)o2)cc1NC(=O)c1cnc2ccccn12` [Compound I-213], the pIC50 in data set [1] was 6.30 to 7.30.

On to `COC(=O)N1CC(c2nc(-c3ccc(C)c(NC(=O)c4cnc5cc(O[C@@H](C)CO)ccn45)c3)no2)C1` (single isomer, unassigned) [Compound I-217], for which the pIC50 in data set [1] is at least 7.30.

In the case of `Cc1ccc(-c2noc(C3(N)CC4(CC(F)(F)C4)C3)n2)cc1NC(=O)c1cnc2ccccn12` [Compound I-307], in data set [2], the “MDCKII-MDR1: Efflux Ratio” value is listed as 1.93 and the “MDCKII-MDR1: Papp A-B” value was 8.84 10^−6 cm/s.

`Cc1ccc(-c2noc(C3CCS(=O)(=O)C3)n2)cc1NC(=O)c1cnc2ccccn12` (racemic) [Compound I-389]: in data set [2], the “MDCKII-MDR1: Efflux Ratio” value was 10.9 and the “MDCKII-MDR1: Papp A-B” value is 3.53 10^−6 cm/s.

For the molecule `Cc1ccc(-c2noc([C@@H](C)O)n2)cc1NC(=O)c1cnc2ccccn12` [Compound I-270], in data set [2], the “MDCKII-MDR1: Efflux Ratio” value was found to be 1.73 and the “MDCKII-MDR1: Papp A-B” value is 17.2 10^−6 cm/s.

Regarding `Cc1ccc(-c2noc([C@H]3CCC(=O)N3)n2)cc1NC(=O)c1cnc2ccccn12` (racemic) [Compound I-327], in data set [2], the “MDCKII-MDR1: Efflux Ratio” value amounted to 38.7 and the “MDCKII-MDR1: Papp A-B” value is reported as 0.78 10^−6 cm/s.

For `Cc1ccc(-c2noc(CC(C)O)n2)cc1NC(=O)c1cnc2ccccn12` (racemic) [Compound I-363], in data set [2], the “MDCKII-MDR1: Efflux Ratio” value worked out at 2.01 and the “MDCKII-MDR1: Papp A-B” value is on record as 13 10^−6 cm/s.

Consider `COc1ccn2c(C(=O)Nc3cc(-c4noc(CC5CC(F)(F)C5)n4)ccc3C)cnc2c1` [Compound I-91], for which the pIC50 in data set [1] was at least 7.30.

Turning to `COCCS(=O)(=O)N1CC(c2nc(-c3ccc(C)c(NC(=O)c4cnc5ccccn45)c3)no2)C1` [Compound I-235], in data set [1], the pIC50 was 6.30 to 7.30.

`Cc1nc(-c2ccc(Cl)c(NC(=O)c3cnc4ccccn34)c2)no1` [Compound I-172]: in data set [2], the “MDCKII-MDR1: Efflux Ratio” value is 0.46 and the “MDCKII-MDR1: Papp A-B” value was 22.7 10^−6 cm/s.

Turning to `COC(=O)N1CC(c2nc(-c3ccc(C)c(NC(=O)c4cnc5cc(OC[C@@H](C)O)ccn45)c3)no2)C1` [Compound I-263], the pIC50 in data set [1] was at least 7.30.

As for `Cc1ccc(-c2noc(C3(O)CC(F)(F)C3)n2)cc1NC(=O)c1cnc2ccccn12` [Compound I-380], in data set [2], the “MDCKII-MDR1: Efflux Ratio” value came out at 2.34 and the “MDCKII-MDR1: Papp A-B” value was 10.9 10^−6 cm/s.

Turning to `COc1ccc2ncc(C(=O)Nc3cc(-c4noc(C[C@@H](C)O)n4)ccc3C)n2c1` [Compound I-119], the pIC50 in data set [1] is at least 7.30.

Take `Cc1ccc(-c2noc([C@H]3C[C@@H]3F)n2)cc1NC(=O)c1cnc2ccc(C#N)cn12` [Compound I-384]: in data set [2], the “MDCKII-MDR1: Efflux Ratio” value is 0.88 and the “MDCKII-MDR1: Papp A-B” value is listed as 17.9 10^−6 cm/s.

Take `Cc1ccc(-c2noc(C3CCC3F)n2)cc1NC(=O)c1cnc2ccccn12` (racemic) [Compound I-376]: in data set [2], the “MDCKII-MDR1: Efflux Ratio” value came to 0.54 and the “MDCKII-MDR1: Papp A-B” value was 8.41 10^−6 cm/s.

Consider `O=C(Nc1cc(-c2noc([C@H]3C[C@@H]3F)n2)ccc1Cl)c1cnc2ccccn12` [Compound I-341], for which, in data set [2], the “MDCKII-MDR1: Efflux Ratio” value was determined as 0.82 and the “MDCKII-MDR1: Papp A-B” value is reported as 17.7 10^−6 cm/s.

For `COC(=O)N1CC(c2nc(-c3ccc(C)c(NC(=O)c4cnn5ccc(Br)cc45)c3)no2)C1` [Compound I-280], in data set [2], the “MDCKII-MDR1: Efflux Ratio” value was determined as 1.19 and the “MDCKII-MDR1: Papp A-B” value is recorded as 11.8 10^−6 cm/s.

In the case of `Cc1nc(-c2ccc(C)c(NC(=O)c3cnc4ccccn34)c2)no1` [Compound I-360], the pIC50 in data set [1] is at least 7.30.

Take `CCOc1ccn2c(C(=O)Nc3cc(-c4noc([C@H]5C[C@@H]5F)n4)ccc3C)cnc2c1` [Compound I-93]: the pIC50 in data set [1] was at least 7.30.

Turning to `Cc1ccc(-c2noc(CC(O)C(F)F)n2)cc1NC(=O)c1cnc2ccccn12` (stereo not drawn) [Compound I-122], in data set [1], the pIC50 is at least 7.30.

Consider `CNC(=O)N1CC(c2nc(-c3ccc(C)c(NC(=O)c4cnc5ccccn45)c3)no2)C1` [Compound I-282], for which, in data set [2], the “MDCKII-MDR1: Efflux Ratio” value is 70.3 and the “MDCKII-MDR1: Papp A-B” value was 0.47 10^−6 cm/s.

In the case of `Cc1nc(-c2ccc(C)c(NC(=O)c3cnc4ccc(N(C)C)cn34)c2)no1` [Compound I-205], the pIC50 in data set [1] is at least 7.30.

Turning to `Cc1ccc(-c2noc(C3CCC(F)C3)n2)cc1NC(=O)c1cnc2ccccn12` (racemic) [Compound I-319], in data set [2], the “MDCKII-MDR1: Efflux Ratio” value turned out to be 0.76 and the “MDCKII-MDR1: Papp A-B” value is on record as 10 10^−6 cm/s.

Take `COC(=O)N1CC(c2nc(-c3ccc(C)c(NC(=O)c4cnc5cc(OC[C@H](C)O)ccn45)c3)no2)C1` [Compound I-262]: the pIC50 in data set [1] is at least 7.30.

As for `Cc1ccc(-c2noc(C3COC3)n2)cc1NC(=O)c1cnc2ccccn12` [Compound I-138], in data set [2], the “MDCKII-MDR1: Efflux Ratio” value is 1.01 and the “MDCKII-MDR1: Papp A-B” value is 22 10^−6 cm/s.

As to `Cc1ccc(-c2noc([C@H]3C[C@@H]3F)n2)cc1NC(=O)c1cnn2ccccc12` [Compound I-109], in data set [1], the pIC50 was at least 7.30.

With `Cc1ccc(-c2noc([C@H]3C[C@@H]3F)n2)cc1NC(=O)c1cnc2cc(COCC(C)(C)O)ccn12` [Compound I-71, N-[5-[5-[(1R,2S)-2-fluorocyclopropyl]-1,2,4-oxadiazol-3-yl]-2-methyl-phenyl]-7-[(2-hydroxy-2-methyl-propoxy)methyl]imidazo[1,2-a]pyridine-3-carboxamide], the pIC50 in data set [1] is at least 7.30.

Take `COc1ccn2c(C(=O)Nc3cc(-c4noc(CC(O)C(F)F)n4)ccc3C)cnc2c1` (single isomer, unassigned) [Compound I-76]: the pIC50 in data set [1] was at least 7.30.

As to `Cc1ccc(-c2noc(CC(=O)O)n2)cc1NC(=O)c1cnc2ccccn12` [Compound I-335], the pIC50 in data set [1] was 6.30 to 7.30.

Regarding `Cc1ccc(-c2noc(C3(C)CC(F)(F)CN3)n2)cc1NC(=O)c1cnc2ccccn12` (racemic) [Compound I-328], in data set [2], the “MDCKII-MDR1: Efflux Ratio” value stood at 0.93 and the “MDCKII-MDR1: Papp A-B” value is recorded as 20.8 10^−6 cm/s.

As for `COc1ccn2c(C(=O)Nc3cc(-c4noc(C5CC(F)(F)C5)n4)ccc3C)cnc2c1` [Compound I-96], the pIC50 in data set [1] was at least 7.30.

Take `Cc1ccc(-c2noc(C3CC(C)(F)C3)n2)cc1NC(=O)c1cnc2ccccn12` (stereo not drawn) [Compound I-387]: in data set [2], the “MDCKII-MDR1: Efflux Ratio” value stood at 0.48 and the “MDCKII-MDR1: Papp A-B” value was 7.59 10^−6 cm/s.

One may read the pIC50 as −log10 of the IC50, conventionally taken in molar units.
